Drawing on PubChem BioAssay AID179 (DTP/NCI, 2004), this text covers EC50, IC50 and outcome for 75 compounds.

Several values for one entry are separate records, joined by “and”; a condition that tells them apart may be missing. Identical values can stand only once. Activity calls are given as the source filed them.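 How the source made its calls: active means compounds giving half or more protection of infected cells from virus-caused growth loss, again on retest; inactive means the rest.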

The assay relates to CEM cells HIV-1 protection, formazan growth assay. The assay is described as follows: NCI AIDS Antiviral Assay. The note with it: for IC50: measured here: growth of uninfected CEM cells. The essentials:
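Category rules: moderately active means at least 50% protection on retest, and confirmed active means 100% protection reproducibly. The underlying data came from a formazan growth assay in HIV-1-infected CEM cells.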

Regarding `CCc1cccc(C)c1NC(=O)C(=O)Cc1nc2ccccc2o1`, the EC50 is above 22.4 µM and the IC50 is above 22.4 µM. On to `CC(NCc1c(O)ccc2ccc(=O)oc12)C(=O)O` (stereo not given), for which the EC50 was above 200 µM and the IC50 is above 200 µM.

Regarding `NC(=O)C(N)(c1ccccc1)c1ccccc1`, the result was inactive. For the compound `N#Cc1cc([N+](=O)[O-])ccc1NC(=O)C(F)(F)F`, the EC50 was above 100 µM and the IC50 was found to be 89.1 µM. For the compound `N#Cc1c(-c2ccccc2)cc(-c2ccccc2)n(C2OC(CO)C(O)C(O)C2O)c1=O` (stereo not given), the EC50 was above 219 µM; the IC50 is 214 µM and > 60.3 µM.

As to `CC(C)(/C=N/O)/[N+]([O-])=C/c1ccccc1`, the EC50 was above 200 µM and the concentration for half-maximal inhibition (IC50) is above 200 µM. With `c1ccc2c(c1)[nH]c1c2nc2ncccn21`, the outcome was inactive. As for `Nc1ccc2c(c1)S(=O)(=O)c1cc(N)ccc1-2`, the EC50 is above 200 µM and the half-maximal inhibitory concentration (IC50) is above 200 µM. Take `CC(C)(C)OC(=O)N1N=CCC1c1ccccc1` (stereo not given): the EC50 is above 200 µM and the half-maximal inhibitory concentration (IC50) is above 200 µM. Take `N#CC(C#N)=Cc1ccccc1O`: the EC50 was above 200 µM and the IC50 stood at 40.7 µM. The like results for `COc1cccc2c1OC(c1ccc(C#N)cc1)C([N+](=O)[O-])=C2` (stereo not given) were, in that order, above 200 µM and 1.58 µM. For the compound `O=C(/C=C/c1ccccc1)Oc1cccc(O)c1`, the EC50 is above 200 µM and the 50% inhibitory concentration (IC50) turned out to be 5.01 µM.

Turning to `c1ccc2sc(SN3CCOCC3)nc2c1`, the EC50 was above 10.7 µM and the IC50 is above 10.7 µM. As to `O=C(/C=C/c1ccc(Cl)cc1)c1ccccc1`, the EC50 was above 56.2 µM and the half-inhibitory concentration (IC50) stood at 11.2 µM. As to `CCOP(=O)(OCC)/C(C#N)=C/c1cccc(OC)c1`, the EC50 is above 229 µM and the IC50 was above 229 µM.

Consider `C[C@H]1OC(=O)[C@@H]2N=NN(Cc3ccccc3)[C@H]12`, for which the outcome was inactive. On to `Cc1ccc(C(=O)NC(C)C)cc1N=NN(C)C`, for which the EC50 is above 145 µM and the IC50 was above 145 µM. Regarding `CN(C)CC(CC1=C(CC(CN(C)C)N(C)C)CCC1)N(C)C` (stereo not given), the outcome was inactive. On to `CCC(C)C1NC(=O)C(N(C)C)Cc2cc(ccc2OC)/C=C/NC(=O)C(Cc2ccccc2)NC1=O` (stereo not given), for which the EC50 was above 35.5 µM and the IC50 was above 35.5 µM. On to `COc1cc2c(cc1OC)CC(=O)c1cc(OC)c(OC)cc1/C=C\2`, for which the EC50 was above 12.6 µM and the IC50 was 7.59 µM.

`O=S(=O)(O)CC(O)CN(CCO)CCO` (stereo not given): the EC50 is above 200 µM and the IC50 is above 200 µM.

In the case of `CC(C)(C)OC(=O)CC(NC(=O)OCc1ccccc1)NC(=O)OC(C)(C)C` (stereo not given), the EC50 was above 200 µM and the IC50 is above 200 µM.

Take `O=c1nc2cc(-c3ccccc3)[nH]c2nn1-c1c(Cl)cc(Cl)cc1Cl`: the EC50 was above 91.2 µM and the IC50 was 1.17 µM. For `CCOC(=O)NC(=O)c1c[nH]c(=O)[nH]c1=O`, the EC50 is above 1100 µM and the concentration for half-maximal inhibition (IC50) is above 1100 µM.

As for `O=C1COC(c2ccccc2O)=NN1CCN1CCOCC1`, the EC50 was above 105 µM and the concentration for half-maximal inhibition (IC50) is above 105 µM. For the compound `CC(=O)/C(=C/n1c(=S)[nH]c2ccccc21)C(=O)Nc1ccc([N+](=O)[O-])cc1`, the EC50 was above 200 µM and the IC50 is 105 µM. The like results for `O=C1NC(=O)c2c1n(Cc1ccccc1)c(=O)n2Cc1ccccc1` were, in that order, above 77.6 µM and above 77.6 µM.

Take `COc1cc2ccc3c(c2cc1OC)CCc1cn[nH]c1-3`: the EC50 is above 9.77 µM and the IC50 was above 9.77 µM. As for `COP(=O)(CC(=O)CCCCCOC1CCCCO1)OC` (stereo not given), the outcome was inactive. Turning to `O=C(Cn1c(=O)oc2ccc(C(=O)c3ccc(F)cc3)cc21)c1ccccc1`, the EC50 was above 200 µM and the IC50 stood at 123 µM. The like results for `CCNCCN.[O-][Cl+3]([O-])([O-])[O-].[Pd+2].c1ccc(-c2ccccn2)nc1` were, in that order, above 200 µM and 30.9 µM.

As for `COC1=CC(=O)C(C#CCOCc2ccccc2)=CC1=O`, the EC50 was above 200 µM and the IC50 was 14.8 µM. As to `COC(=O)C12c3[nH]c4ccccc4c3CCN1CC(=O)C2C(=O)OCc1ccccc1` (stereo not given), the EC50 was above 91.2 µM and the half-inhibitory concentration (IC50) came out at 57.5 µM. The matching figures for `CC(C)(C)c1ccc(-n2c3nc(=O)n(-c4ccccc4CO)c(=O)c-3cc3ccccc32)cc1`: above 200 µM and 23.4 µM. The like results for `O=C(O)c1ccc(C(=O)c2ccccc2C(=O)O)cc1C(=O)O` were, in that order, 19.1 µM and above 200 µM. The matching figures for `Cc1cc2c(c3ncccc13)OCN(Cc1ccc(Cl)c(Cl)c1)C2`: above 100 µM and 1.05 µM.

As for `CC(CN(C)C)OC(=O)c1cc2ccccc2n1Cc1ccccc1` (stereo not given), the EC50 was above 200 µM and the IC50 was 87.1 µM. The like results for `O=C1c2[nH]c3ccc(Br)cc3c2CCN1Cc1ccc(Cl)cc1` were, in that order, above 200 µM and 11.2 µM. The like results for `CCC1C[N+]23CCc4c([nH]c5ccccc45)C2CC1CC3` (stereo not given) were, in that order, above 57.5 µM and above 57.5 µM. The matching figures for `CC1(C)CN=C(c2ccc3ccccc3c2O)N1`: above 200 µM and above 200 µM.

With `c1cc(-c2cnc(-c3ccc4c(c3)CCCO4)o2)ccn1`, the EC50 is above 200 µM and the IC50 stood at 50.1 µM. Regarding `O=C(CC(CC(=O)Oc1c(Br)cc(Br)cc1C(=O)O)C(=O)Oc1c(Br)cc(Br)cc1C(=O)O)Oc1c(Br)cc(Br)cc1C(=O)O`, the EC50 is above 245 µM and the IC50 stood at 85.1 µM. The like results for `CN(C)CCCC12CCCCC1=Nc1ccccc12` (stereo not given) were, in that order, above 200 µM and 7.76 µM. The matching figures for `CS(=O)(=O)Sc1ccccc1C(=O)O`: above 1070 µM and above 1070 µM. The matching figures for `CCOC(=O)c1[nH]n(-c2ccccc2)c(=O)c1/C=N/C(=S)Nc1ccc(Cl)cc1Cl`: above 200 µM and above 200 µM. Take `CCOC(=S)SSC(=S)OCC`: the EC50 was above 200 µM and the IC50 is 107 µM.

On to `CC12OC3(O)C4C5CC(C6C5C3C61)C42` (stereo not given), for which the result was inactive. On to `COC(=O)[C@H]1N[C@@H](C(=O)OC)C23CCC[C@H]2CC[C@]1(C(OC)OC)C3`, for which the EC50 is above 708 µM and the IC50 was 389 µM. The like results for `C=C(C)Cn1c(N)c(N=O)c(=O)n(CC)c1=O` were, in that order, above 200 µM and 158 µM. The like results for `C(=N\NC1=NCCCCN1)/c1ccc2ccccc2c1` were, in that order, above 200 µM and 33.1 µM. The matching figures for `CN1CCN(CCCN2c3ccccc3Sc3ccc(Cl)cc32)CC1`: above 200 µM and 3.72 µM. For `C#CC1=CC(=O)C(OC)=CC1=O`, the EC50 is above 200 µM and the IC50 amounted to 31.6 µM.

`N=c1nc(-c2ccccc2)nc2[nH]c3c4cccc5cccc(c3nc12)c54`: the EC50 was above 200 µM and the IC50 turned out to be 67.6 µM. In the case of `CCCc1cc(=O)oc2c3c(cc(OC)c12)O[C@H](C)C(C)[C@H]3O` (stereo not given in full), the EC50 is above 200 µM and the IC50 was 51.3 µM. Take `O=C(OC1(c2ccccc2)OC(=O)c2ccccc21)c1ccccc1C(=O)c1ccccc1` (stereo not given): the result was inactive.

As to `Cc1ccc(S(=O)(=O)OCC2OC(OC3(CO)OC(COS(=O)(=O)c4ccc(C)cc4)C(O)C3O)C(O)C(O)C2O)cc1` (stereo not given), the EC50 was above 200 µM and the IC50 was above 200 µM. As to `c1ccc([S+]([CH2][Hg][CH2][S+](c2ccccc2)c2ccccc2)c2ccccc2)cc1`, the EC50 is above 30.2 µM and the IC50 is 10 µM. As for `O=c1oc2ccc([N+](=O)[O-])cc2cc1-c1csc(-c2ccccc2)n1`, the result was inactive. Consider `C=Cc1nc2nnc(CCCCCCCCc3nnc4nc(C=C)[nH]n34)n2[nH]1`, for which the EC50 is above 200 µM and the half-inhibitory concentration (IC50) came to 40.7 µM. The like results for `O=C1N(C2CCCCC2)CC2(Cc3ccccc3)c3ccccc3NC12O` (stereo not given) were, in that order, above 20 µM and above 20 µM. The matching figures for `CC(Cn1c2c3ccccc3ccc2c2oc(=O)c3ccccc3c21)N(C)C` (stereo not given): above 3.89 µM and above 3.89 µM. Turning to `Cc1ccc(C2=Nc3ccc(F)cc3SC(C(=O)O)C2)cc1` (stereo not given), the outcome was inactive. Take `CC(=O)Oc1ccc2cc(-c3ccccc3OC(C)=O)c(=O)oc2c1`: the EC50 is above 200 µM and the IC50 is 74.1 µM. The like results for `CCOC(=O)c1no[n+]([O-])c1C(=O)OCC` were, in that order, above 200 µM and 5.75 µM. For the compound `C/C1=C\[C@H](C)C[C@H](C)OC(=O)C[C@H](c2ccc(O)cc2)NC(=O)[C@@H](Cc2c(Br)[nH]c3ccccc23)N(C)C(=O)[C@H](C)NC(=O)[C@@H](C)C1`, the EC50 is above 2 µM and the IC50 was 0.0302 µM. In the case of `COc1cc(C2=NN(C)C(c3ccc([N+](=O)[O-])o3)C2)cc(OC)c1OC` (stereo not given), the EC50 is above 83.2 µM and the IC50 is 32.4 µM. `CC(=O)C(=Cc1ccc(C#N)cc1)C(C)=O`: the EC50 is above 170 µM and the half-maximal inhibitory concentration (IC50) turned out to be 26.9 µM. As for `C=C1CN(S(=O)(=O)c2ccc(C)cc2)CCCN(CCC(C)C)CCCN(S(=O)(=O)c2ccc(C)cc2)C1`, the EC50 was above 200 µM and the concentration for half-maximal inhibition (IC50) is 1.02 µM. The matching figures for `C=CCCCCCCCCC(=O)NCC1CC1`: above 200 µM and above 200 µM. The matching figures for `O=C1CCSc2c(cnc3ccccc23)N1`: above 200 µM and above 200 µM. The matching figures for `O=C(NC1C(=O)NNC1c1ccccc1Cl)c1ccccc1` (stereo not given): above 158 µM and above 158 µM. As to `O=C1NC2C(=O)N(Cc3ccccc3)C(=O)C2N1` (stereo not given), the EC50 is above 29.5 µM and the IC50 is above 29.5 µM. Turning to `O=c1c(-c2cccc3ccccc23)c(-c2cccc3ccccc23)c1=O`, the result was inactive. For the compound `N#Cc1c(NC(=O)CN2CCOCC2)c(C(=O)Nc2ccc(Cl)cc2)n2c1CCC2`, the EC50 is above 50.1 µM and the IC50 is above 50.1 µM. On to `Cc1cc(=O)[nH]c(NN2C(Cl)C(=O)C2c2cccc([N+](=O)[O-])c2)n1` (stereo not given), for which the EC50 is above 53.7 µM and the IC50 turned out to be 15.5 µM.
